Consider four molecules from US7078401B2, “Thiophenylaminoimidazolines as IP antagonists” (Roche Palo Alto LLC, priority 2003, dated 2006).

Where a name gives a salt, the structure may show the parent alone.

In turn, `COc1ccc(Sc2ccc(NC3=NCCN3)cc2)cc1` (as salt: hydrochloride) [Compound 5, (4,5-Dihydro-1H-imidazol-2-yl)-[4-(4-methoxy-phenylsulfanyl)-phenyl]-amine] showed a melting point of 149 to 150 °C. The result for `Clc1ccc(Sc2ccc(CNC3=NCCN3)cc2)cc1` (as salt: hydrochloride) [Compound 9, [4-(4-Chloro-phenylsulfanyl)-benzyl]-(4,5-dihydro-1H-imidazol-2-yl)-amine] reads 127 to 130 °C. `Clc1ccc(Sc2ccc(NC3=NCCCC3)cc2)cc1` (as salt: hydrochloride) [Compound 73, [4-(4-Chloro-phenylsulfanyl)-phenyl]-(3,4,5,6-tetrahydro-pyridin-2-yl)-amine] came in with a melting point of 148 to 152 °C.

For `COc1ccc(Sc2ccc(NC(=N)N)cc2)cc1` [Example 2, N-[4-(4-Methoxy-phenylsulfanyl)-phenyl]-guanidine], the melting point fell in the range of 140 to 141 °C.

As a reminder, the melting point is the temperature, or range, at which the solid turns liquid.
